Literature values in patent US20040191214A1, “Nucleoside vaccine adjuvants” (priority 2001, published 2004).

Test system: lymphocyte
Details: stated as known; see U.S. Pat. Nos. 6,130,326, 6,063,772, 5,767,097 to Tam

Q: With `NC(=O)c1ncn([C@@H]2O[C@H](CO)[C@@H](O)[C@H]2O)n1` [Ribavirin, 1-beta-D-ribofuranosyl-1,2,4-triazole-3-carboxamide] as the compound, how does the “stimulation of Type 1 or Type 2 (cytokine) response” value (“stimulation” for short) read?
A: The value was “stimulate a Type 1 response”.

Q: For `Cl.N=C(N)c1cn([C@@H]2O[C@H](CO)[C@@H](O)[C@H]2O)c2nc[nH]c(=O)c12` [7-(β-D-ribofuranosyl)pyrrolo[2,3-d]4-pyrimidone-5-carboxamidine*HCl], which “stimulation” value is on record?
A: The value was “stimulate a Type 2 response”.

Q: For `NC(=O)c1ncn([C@H]2O[C@@H](CO)[C@H](O)[C@@H]2O)n1` [Levovirin, 1-beta-L-ribofuranosyl-1,2,4-triazole-3-carboxamide], which “stimulation” value is on record?
A: Its value is “stimulate a Type 1 response”.

Q: Which “stimulation” value does the source give for `N=C(N)c1ncn([C@@H]2O[C@H](CO)[C@@H](O)[C@H]2O)n1` [Viramidine, 1-beta-D-ribofuranosyl-1,2,4-triazole-3-carboxamidine] here?
A: The value was “stimulate a Type 1 response”.
